Source: patent US9452177B2, “Vitamin D compounds and methods for reducing ocular hypertension (OHT)” (Wisconsin Alumni Research Foundation, priority 2008, dated 2016)

What was measured:
[1] = test system: eyes of ocular normotensive cynomolgus monkeys; test: Intraocular pressure (IOP) by Goldmann applanation tonometry after 5 twice-daily unilateral topical treatments; type: in vivo, cynomolgus monkeys (Macaca fascicularis); conditions: for IOP less than at baseline prior to the 5th treatment: one eye, both treated and control eye; for IOP decrease prior to the fifth treatment on day 3: both eyes
Experimental: Ocular normotensive adult cynomolgus monkeys (Macaca fascicularis), of either sex, weighing 3-7 kg were anesthetized with i.m. ketamine HCl (3-25 mg/kg, supplemented with 1-10 mg/kg) for IOP and topical drop administration. All monkeys were free of any ocular abnormalities according to slit lamp biomicroscopy at the time measurements were taken. The monkeys were provided by the Primate Center at the University of Wisconsin-Madison. All experiments were done in accordance with the ARVO Statement on the Use of Animals in Ophthalmic and Vision Research.
(§1) The intraocular pressure (IOP) was determined with a “minified” Goldmann applanation tonometer [Kaufman, 1980] using HALF AND HALF™ creamer solution (Borden) as the tear film indicator [Croft, 1997] with the monkey lying prone in a head holder and the eyes positioned 4 to 8 cm above the heart. All monkeys were examined by slit-lamp before the first IOP measurement in each protocol. For each eye, two or three IOP measurements were averaged as a baseline.
Under ketamine anesthesia (KETAJECT™, Phoenix Pharmaceutical, St Joseph, Mo. (3-25 mg/kg i.m., supplemented with 1-10 mg/kg i.m. as needed) baseline IOP was determined, usually between 7:30 and 9 am (2 readings, 5 minutes apart; if IOP baseline measurements were not within 2-3 mm Hg of each other, a 3rd reading was taken 5 min later). Baseline IOP was at least 15 mmHg if possible. A baseline blood sample was taken from the femoral artery or vein, or sometimes the brachial vein (1-2 ml). This was allowed to clot and then spun down (3000 rpm for 10 min, Damon/IEC NH-SII centrifuge) and the serum removed and frozen at −20 C for no more than 1 week. Baseline systolic, diastolic and mean arterial pressure as well as heart rate were recorded with the Dinamap monitor from a cuff placed around the arm or the leg.
After baseline measurements, the monkey was place supine with the eye pointing up and the eyelid held open. A 5 μl drop of test material or vehicle was delivered to opposite eyes. The eyelid was held open for at least 30 sec and the eye was maintained in the upward position for an additional 30 sec. The monkey was then returned to its cage and allowed to wake up. In the afternoon, at least 6 hours after the morning treatment, another treatment was administered. On the second day, dosing was repeated in the am and pm.
(§2) On the 3th day, prior to the 5th treatment, baseline IOP, biomicroscopy and MAP were determined. Preliminary studies indicated an effect was observed after these treatments but not after a single treatment. Following the 5th dose, IOP was measured at 1, 2, 3, 4, 5, 6, 7, 8, 12 (if possible), 24, and sometimes 48 hr. Biomicroscopy was done at 1, 3, 6, 24 and sometimes 48 hr. MAP on day 3 (some protocols) was determined at 1, 2, 3, 4, 5, 6, 7, 8, 24 and sometimes 48 hr if possible. Blood samples after the 5th treatment were collected at 6, 24, and sometimes 48 hr. For some protocols, IOP was also measured prior to each treatment; MAP was measured prior to the morning treatment; blood was collected prior to the afternoon treatment. Subsequent screening protocols will not include the MAP and blood collections and will only measure IOP at baseline and prior to and for 1-6 hr after the 5th treatment.
Adult cynomolgus monkeys (Macaca fascicularis) of either sex were anesthetized with intramuscular ketamine HCl (10 mg/kg initial, 5 mg/kg supplemental). Baseline pretreatment IOP was determined by Goldmann applanation tonometry [Kaufman, 1980] with […] used as a tear film indicator [Croft, 1997]. Two baseline IOP measurements were taken 5 minutes apart. […]

[2] = Ocular inflammation by slit-lamp biomicroscopy; type: in vivo, cynomolgus monkeys (Macaca fascicularis); conditions: Example 1; 5 topical treatments, 5 μg (2MD 6 μg)
Experimental: as §1, §2
Baseline pretreatment IOP was determined by Goldmann applanation tonometry [Kaufman, 1980] with […] used as a tear film indicator [Croft, 1997]. Two baseline IOP measurements were taken 5 minutes apart. Monkeys were then treated topically with 5 μl of 1,25-dihydroxyvitamin D3 (1,25-(OH)2D3) (0.1-5 μg) to one eye and vehicle (propylene glycol) to the opposite eye twice a day for 5 treatments total. […] IOP was also measured prior to the afternoon treatment. On the third day, IOP was measured prior to the morning treatment. Following the fifth treatment, IOP was measured hourly for 8 hours and, in some cases, also at 12, 24, and 48 hours. […]

[3] = Example 3, 5 μg unilateral topical

C=C1/C(=C\C=C2/CCC[C@]3(C)[C@@H]([C@H](C)CCCC(C)(C)O)CC[C@@H]23)C[C@@H](O)C[C@@H]1O [1,25-(OH)2D3, 1α,25-dihydroxyvitamin D3]
IOP in treated eye compared with control eye ([1]; Example 1, 5 μg (2MD 6 μg) in 5 μl propylene glycol one eye, vehicle opposite eye): consistently, but not significantly less than in the control eye
IOP less than at baseline prior to the 5th treatment ([1]; Example 1, 5 μg in 5 μl propylene glycol twice daily, n=8): 3-4 mmHg
IOP less than at baseline prior to the 5th treatment ([1]; Example 1, 5 μg twice daily, n=8, p<0.05): ~17%
time of gradual recovery of IOP toward baseline ([1]; Example 1, 5 μg, after 5th treatment): 24 to 48 h
additional IOP decrease after the 5th treatment ([1]; Example 1, 5 μg, hr 1-4 after 5th dose): 1-2 mmHg
total IOP reduction after the 5th treatment ([1]; Example 1, 5 μg, hr 1-4 after 5th dose, p<0.02): 20-30%
strongest response, IOP decrease ([1]; Example 1, 5 uniocular topical treatments): up to 40%
rank order of ocular hypotensive effect ([1]; Example 1, 5 uniocular topical treatments at the same dose): 1,25(OH)2D3>2MD>AGR
effect on IOP ([1]; Example 3, 0.1 μg unilateral topical, either eye): did not have any significant effect on IOP in either eyes
IOP reduction in control versus treated eyes ([1]; Example 3, 1 μg): stronger IOP reduction in the fellow control eyes than in the treated eyes
IOP reduction (bilateral) ([1]; Example 3, 1 μg unilateral topical): 20%
IOP difference between treated and control eyes ([1]; Example 3, 5 μg): no significant differences between the two eyes except for the time period of 12 h or longer
IOP reduction, control eyes ([1]; Example 3, 5 μg in opposite eye): 27%
IOP reduction, treated eye [1, 3]: 30%
IOP decrease prior to the fifth treatment on day 3 [1, 3]: ~3 mmHg
IOP decrease prior to the fifth treatment on day 3 ([1]; Example 3, 5 μg unilateral topical, p<0.05): approximately 20%
time of return of IOP to near pretreatment baseline ([1]; Example 3, 5 μg, after fifth treatment): 48 h
duration of IOP-lowering effect ([1]; topical application, nonhuman primates): more than 12 hours
ocular inflammation [2]: no ocular inflammation at any time-point
